# According to patent EP4722207A1, “OXOISOINDOLINYL-SUBSTITUTED TETRAHYDROPYRIMIDINEDIONE DERIVATIVE AND USE THEREOF” (Gluetacs Therapeutics (Shanghai) Co., Ltd., priority 2023, dated 2024):
# Tests used:
# Format in all cases: cell-based
# Settings in all cases: compounds at 50 nM and 500 nM, 24 hours
# [1] = target: T1, IKZF2 (Homo sapiens, UniProt Q96SW2+Q9UKS7); assay: Western-blot assay, substrate protein degradation in hPBMCs: IKZF2
# T1 construct: effects of the compounds of the present disclosure on the expression of target proteins in cells; endogenous in cells; host or cells: human PBMCs (hPBMCs)
# T1 sequence (Q9UKS7 whole entry): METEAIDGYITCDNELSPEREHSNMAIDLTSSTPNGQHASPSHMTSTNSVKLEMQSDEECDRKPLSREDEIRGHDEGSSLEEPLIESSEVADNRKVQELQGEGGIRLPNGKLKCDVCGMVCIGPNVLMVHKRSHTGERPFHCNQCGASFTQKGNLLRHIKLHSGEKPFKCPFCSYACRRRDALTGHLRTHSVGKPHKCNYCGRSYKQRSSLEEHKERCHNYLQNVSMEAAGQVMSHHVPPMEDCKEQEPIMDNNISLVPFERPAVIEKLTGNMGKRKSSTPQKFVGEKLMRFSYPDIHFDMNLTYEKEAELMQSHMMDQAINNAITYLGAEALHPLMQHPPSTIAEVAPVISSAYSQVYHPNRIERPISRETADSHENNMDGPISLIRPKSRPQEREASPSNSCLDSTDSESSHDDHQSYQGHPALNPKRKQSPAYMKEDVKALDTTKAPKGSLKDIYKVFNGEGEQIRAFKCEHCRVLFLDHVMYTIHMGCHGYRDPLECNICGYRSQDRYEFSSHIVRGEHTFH
# T1 sequence (Q96SW2 whole entry): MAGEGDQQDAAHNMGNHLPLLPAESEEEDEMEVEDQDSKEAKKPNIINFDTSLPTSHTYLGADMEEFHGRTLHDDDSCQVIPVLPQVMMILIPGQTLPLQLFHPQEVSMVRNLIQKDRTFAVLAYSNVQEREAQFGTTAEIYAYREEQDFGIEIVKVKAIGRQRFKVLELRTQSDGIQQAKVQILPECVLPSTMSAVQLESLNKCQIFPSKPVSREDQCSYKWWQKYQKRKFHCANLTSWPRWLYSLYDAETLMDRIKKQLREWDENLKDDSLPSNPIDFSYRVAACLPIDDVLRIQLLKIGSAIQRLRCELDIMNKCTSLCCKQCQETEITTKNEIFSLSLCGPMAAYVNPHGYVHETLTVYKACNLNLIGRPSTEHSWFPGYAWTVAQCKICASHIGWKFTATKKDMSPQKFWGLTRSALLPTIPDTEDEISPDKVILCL
# T1 sequence (Q16531 whole entry partner): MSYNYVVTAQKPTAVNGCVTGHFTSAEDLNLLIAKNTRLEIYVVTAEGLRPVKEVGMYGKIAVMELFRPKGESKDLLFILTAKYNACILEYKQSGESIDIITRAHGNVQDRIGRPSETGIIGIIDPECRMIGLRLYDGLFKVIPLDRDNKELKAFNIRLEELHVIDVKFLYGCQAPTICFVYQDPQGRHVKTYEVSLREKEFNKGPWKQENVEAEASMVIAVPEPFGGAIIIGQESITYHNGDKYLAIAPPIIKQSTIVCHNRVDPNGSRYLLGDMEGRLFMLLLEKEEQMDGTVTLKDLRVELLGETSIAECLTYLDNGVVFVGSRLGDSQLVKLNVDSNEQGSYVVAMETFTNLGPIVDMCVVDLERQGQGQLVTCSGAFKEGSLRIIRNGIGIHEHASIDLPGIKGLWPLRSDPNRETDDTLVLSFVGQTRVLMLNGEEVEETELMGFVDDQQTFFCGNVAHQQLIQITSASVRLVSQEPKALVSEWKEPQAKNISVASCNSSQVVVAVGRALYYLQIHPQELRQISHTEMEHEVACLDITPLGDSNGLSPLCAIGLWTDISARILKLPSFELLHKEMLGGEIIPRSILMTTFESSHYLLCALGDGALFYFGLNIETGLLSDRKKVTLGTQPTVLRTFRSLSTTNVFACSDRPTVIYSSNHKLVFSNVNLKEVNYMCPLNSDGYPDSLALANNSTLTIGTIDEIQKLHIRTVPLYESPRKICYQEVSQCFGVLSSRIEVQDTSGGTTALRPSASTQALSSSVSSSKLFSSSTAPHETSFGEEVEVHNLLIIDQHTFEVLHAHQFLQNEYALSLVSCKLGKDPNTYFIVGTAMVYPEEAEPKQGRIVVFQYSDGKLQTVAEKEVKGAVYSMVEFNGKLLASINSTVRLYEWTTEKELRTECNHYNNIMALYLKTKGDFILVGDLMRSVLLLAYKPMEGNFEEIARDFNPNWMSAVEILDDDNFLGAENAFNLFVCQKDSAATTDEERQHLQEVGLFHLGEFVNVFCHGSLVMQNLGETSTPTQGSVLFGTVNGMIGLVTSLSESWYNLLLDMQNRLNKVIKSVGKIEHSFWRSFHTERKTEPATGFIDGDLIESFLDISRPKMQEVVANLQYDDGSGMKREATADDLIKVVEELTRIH
# [2] = target: T2, IKZF1 (Homo sapiens, UniProt Q13422+Q96SW2); assay: Western-blot assay, substrate protein degradation in hPBMCs: IKZF1
# T2 construct: effects of the compounds of the present disclosure on the expression of target proteins in cells; endogenous in cells; host or cells: human PBMCs (hPBMCs)
# [3] = target: T3, IKZF3 (Homo sapiens, UniProt Q96SW2+Q9UKT9); assay: Western-blot assay, substrate protein degradation in hPBMCs: IKZF3
# T3 construct: effects of the compounds of the present disclosure on the expression of target proteins in cells; endogenous in cells; host or cells: human PBMCs (hPBMCs)
# T3 sequence (Q9UKT9 whole entry): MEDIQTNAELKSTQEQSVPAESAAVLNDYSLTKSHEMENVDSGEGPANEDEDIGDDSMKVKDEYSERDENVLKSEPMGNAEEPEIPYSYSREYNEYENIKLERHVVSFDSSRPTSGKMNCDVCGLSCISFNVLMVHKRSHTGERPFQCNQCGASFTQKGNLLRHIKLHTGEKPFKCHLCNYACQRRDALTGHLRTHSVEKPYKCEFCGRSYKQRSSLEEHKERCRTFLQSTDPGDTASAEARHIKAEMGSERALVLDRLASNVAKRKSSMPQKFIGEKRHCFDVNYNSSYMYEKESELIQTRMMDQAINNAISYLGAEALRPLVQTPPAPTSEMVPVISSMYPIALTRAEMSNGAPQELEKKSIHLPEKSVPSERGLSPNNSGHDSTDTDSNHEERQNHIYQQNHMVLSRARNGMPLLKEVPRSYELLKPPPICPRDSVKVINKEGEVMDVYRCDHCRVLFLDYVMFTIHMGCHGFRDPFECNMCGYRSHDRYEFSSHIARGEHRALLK
# T3 sequence (Q96SW2 whole entry): as the sequence (Q96SW2 whole entry) above
# T3 sequence (Q16531 whole entry partner): as the sequence (Q16531 whole entry partner) above
# [4] = target: T4, CK1α (Homo sapiens, UniProt P48729+Q96SW2); assay: Western-blot assay, substrate protein degradation in hPBMCs: CK1α
# T4 construct: effects of the compounds of the present disclosure on the expression of target proteins in cells; endogenous in cells; host or cells: human PBMCs (hPBMCs)
# T4 sequence (P48729 whole entry): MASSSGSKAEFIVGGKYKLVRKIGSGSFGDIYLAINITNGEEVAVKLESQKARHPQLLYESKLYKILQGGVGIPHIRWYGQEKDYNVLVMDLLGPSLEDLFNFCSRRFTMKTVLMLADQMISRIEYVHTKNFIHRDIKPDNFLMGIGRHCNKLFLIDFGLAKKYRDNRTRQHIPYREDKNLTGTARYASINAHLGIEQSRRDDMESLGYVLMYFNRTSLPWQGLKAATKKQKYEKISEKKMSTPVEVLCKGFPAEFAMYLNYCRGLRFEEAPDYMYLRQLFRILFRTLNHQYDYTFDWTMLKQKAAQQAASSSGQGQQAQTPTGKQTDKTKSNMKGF
# T4 sequence (Q96SW2 whole entry): as the sequence (Q96SW2 whole entry) above
# T4 sequence (Q16531 whole entry partner): as the sequence (Q16531 whole entry partner) above
# [5] = target: T5, WEE1 (Homo sapiens, UniProt P30291+Q96SW2); assay: Western-blot assay, substrate protein degradation in hPBMCs: WEE1
# T5 construct: effects of the compounds of the present disclosure on the expression of target proteins in cells; endogenous in cells; host or cells: human PBMCs (hPBMCs)
# T5 sequence (P30291 whole entry): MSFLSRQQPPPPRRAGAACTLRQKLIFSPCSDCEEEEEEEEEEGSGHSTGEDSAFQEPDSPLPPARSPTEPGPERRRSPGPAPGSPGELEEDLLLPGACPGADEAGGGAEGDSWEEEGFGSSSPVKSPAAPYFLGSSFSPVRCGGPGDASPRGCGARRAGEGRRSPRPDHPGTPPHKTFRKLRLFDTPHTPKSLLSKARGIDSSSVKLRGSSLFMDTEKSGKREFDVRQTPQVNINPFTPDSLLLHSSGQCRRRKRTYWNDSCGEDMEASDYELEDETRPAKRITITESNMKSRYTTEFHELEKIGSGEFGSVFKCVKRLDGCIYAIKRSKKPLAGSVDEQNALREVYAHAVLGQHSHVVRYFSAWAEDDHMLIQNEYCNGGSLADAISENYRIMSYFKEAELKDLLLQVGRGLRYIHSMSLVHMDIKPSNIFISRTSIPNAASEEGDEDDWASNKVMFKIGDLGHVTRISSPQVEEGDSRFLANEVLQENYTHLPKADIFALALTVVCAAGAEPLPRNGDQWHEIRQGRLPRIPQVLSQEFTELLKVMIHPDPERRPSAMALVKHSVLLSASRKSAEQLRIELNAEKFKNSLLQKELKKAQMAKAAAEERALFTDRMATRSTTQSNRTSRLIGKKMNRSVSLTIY
# T5 sequence (Q96SW2 whole entry): as the sequence (Q96SW2 whole entry) above
# T5 sequence (Q16531 whole entry partner): as the sequence (Q16531 whole entry partner) above
# [6] = target: T6, GSPT1 (Homo sapiens, UniProt P15170+Q96SW2); assay: Western-blot assay, substrate protein degradation in hPBMCs: GSPT1
# T6 construct: effects of the compounds of the present disclosure on the expression of target proteins in cells; endogenous in cells; host or cells: human PBMCs (hPBMCs)
# T6 sequence (P15170 whole entry): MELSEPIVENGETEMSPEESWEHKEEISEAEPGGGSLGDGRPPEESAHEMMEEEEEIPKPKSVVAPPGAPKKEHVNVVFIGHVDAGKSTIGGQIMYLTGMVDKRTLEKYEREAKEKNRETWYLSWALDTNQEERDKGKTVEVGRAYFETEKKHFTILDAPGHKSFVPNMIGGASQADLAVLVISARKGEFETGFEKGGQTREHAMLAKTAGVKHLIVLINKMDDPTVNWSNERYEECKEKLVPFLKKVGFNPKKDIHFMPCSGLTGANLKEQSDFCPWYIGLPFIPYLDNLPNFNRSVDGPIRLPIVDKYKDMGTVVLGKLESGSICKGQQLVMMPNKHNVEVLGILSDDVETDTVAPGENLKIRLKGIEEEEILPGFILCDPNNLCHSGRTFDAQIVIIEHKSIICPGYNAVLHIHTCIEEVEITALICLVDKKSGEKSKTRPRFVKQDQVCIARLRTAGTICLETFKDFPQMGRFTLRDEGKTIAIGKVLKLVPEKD
# T6 sequence (Q96SW2 whole entry): as the sequence (Q96SW2 whole entry) above
# T6 sequence (Q16531 whole entry partner): as the sequence (Q16531 whole entry partner) above
smiles,measurement,setting,value
"COc1ccc(N2CCN(Cc3ccc4c(c3)CN(N3CCC(=O)NC3=O)C4=O)CC2)cc1 [GT-06767, 1-(5-((4-(4-methoxyphenyl)piperazin-1-yl)methyl)-1-oxoisoindolin-2-yl)dihydropyrimidine-2,4(1H,3H)-dione]",IKZF2 substrate protein remaining %,[1],"A (""A"" is defined as 0% ≤ substrate protein remaining % ≤ 80%)"
same,IKZF1 substrate protein remaining %,[2],"A (""A"" is defined as 0% ≤ substrate protein remaining % ≤ 80%)"
same,IKZF3 substrate protein remaining %,[3],"A (""A"" is defined as 0% ≤ substrate protein remaining % ≤ 80%)"
same,CK1α substrate protein remaining %,[4],"A (""A"" is defined as 0% ≤ substrate protein remaining % ≤ 80%)"
same,WEE1 substrate protein remaining %,[5],"A (""A"" is defined as 0% ≤ substrate protein remaining % ≤ 80%)"
same,GSPT1 substrate protein remaining %,[6],"A (""A"" is defined as 0% ≤ substrate protein remaining % ≤ 80%)"
"O=C1CCN(N2Cc3cc(CN4CCN(c5ccc(Br)cc5)CC4)ccc3C2=O)C(=O)N1 [GT-06768, 1-(5-((4-(4-bromophenyl)piperazin-1-yl)methyl)-1-oxoisoindolin-2-yl)dihydropyrimidine-2,4(1H,3H)-dione]",IKZF2 substrate protein remaining %,[1],"B (""B"" is defined as 80%< substrate protein remaining %≤ 100%)"
same,IKZF1 substrate protein remaining %,[2],"B (""B"" is defined as 80%< substrate protein remaining %≤ 100%)"
same,IKZF3 substrate protein remaining %,[3],"A (""A"" is defined as 0% ≤ substrate protein remaining % ≤ 80%)"
same,CK1α substrate protein remaining %,[4],"A (""A"" is defined as 0% ≤ substrate protein remaining % ≤ 80%)"
same,WEE1 substrate protein remaining %,[5],"A (""A"" is defined as 0% ≤ substrate protein remaining % ≤ 80%)"
same,GSPT1 substrate protein remaining %,[6],"A (""A"" is defined as 0% ≤ substrate protein remaining % ≤ 80%)"
"Cc1ccccc1N1CCN(Cc2ccc3c(c2)CN(N2CCC(=O)NC2=O)C3=O)CC1 [GT-06769, 1-(1-oxo-5-((4-(o-tolyl)piperazin-1-yl)methyl)isoindolin-2-yl)dihydropyrimidine-2,4(1H,3H)-dione]",IKZF2 substrate protein remaining %,[1],"A (""A"" is defined as 0% ≤ substrate protein remaining % ≤ 80%)"
same,IKZF1 substrate protein remaining %,[2],"B (""B"" is defined as 80%< substrate protein remaining %≤ 100%)"
same,IKZF3 substrate protein remaining %,[3],"A (""A"" is defined as 0% ≤ substrate protein remaining % ≤ 80%)"
same,CK1α substrate protein remaining %,[4],"A (""A"" is defined as 0% ≤ substrate protein remaining % ≤ 80%)"
same,WEE1 substrate protein remaining %,[5],"A (""A"" is defined as 0% ≤ substrate protein remaining % ≤ 80%)"
same,GSPT1 substrate protein remaining %,[6],"A (""A"" is defined as 0% ≤ substrate protein remaining % ≤ 80%)"
"Cc1ccc(N2CCN(Cc3ccc4c(c3)CN(N3CCC(=O)NC3=O)C4=O)CC2)cc1 [GT-06771, 1-(1-oxo-5-((4-(p-tolyl)piperazin-1-yl)methyl)isoindolin-2-yl)dihydropyrimidine-2,4(1H,3H)-dione]",IKZF2 substrate protein remaining %,[1],"A (""A"" is defined as 0% ≤ substrate protein remaining % ≤ 80%)"
same,IKZF1 substrate protein remaining %,[2],"B (""B"" is defined as 80%< substrate protein remaining %≤ 100%)"
same,IKZF3 substrate protein remaining %,[3],"A (""A"" is defined as 0% ≤ substrate protein remaining % ≤ 80%)"
same,CK1α substrate protein remaining %,[4],"A (""A"" is defined as 0% ≤ substrate protein remaining % ≤ 80%)"
same,WEE1 substrate protein remaining %,[5],"A (""A"" is defined as 0% ≤ substrate protein remaining % ≤ 80%)"
same,GSPT1 substrate protein remaining %,[6],"A (""A"" is defined as 0% ≤ substrate protein remaining % ≤ 80%)"
"O=C1CCN(N2Cc3cc(CN4CCN(c5ccc(Cl)cc5Cl)CC4)ccc3C2=O)C(=O)N1 [GT-06772, 1-(5-((4-(2,4-dichlorophenyl)piperazin-1-yl)methyl)-1-oxoisoindolin-2-yl)dihydropyrimidine-2,4(1H,3H)-dione]",IKZF2 substrate protein remaining %,[1],"A (""A"" is defined as 0% ≤ substrate protein remaining % ≤ 80%)"
same,IKZF1 substrate protein remaining %,[2],"B (""B"" is defined as 80%< substrate protein remaining %≤ 100%)"
same,IKZF3 substrate protein remaining %,[3],"A (""A"" is defined as 0% ≤ substrate protein remaining % ≤ 80%)"
same,CK1α substrate protein remaining %,[4],"A (""A"" is defined as 0% ≤ substrate protein remaining % ≤ 80%)"
same,WEE1 substrate protein remaining %,[5],"A (""A"" is defined as 0% ≤ substrate protein remaining % ≤ 80%)"
same,GSPT1 substrate protein remaining %,[6],"A (""A"" is defined as 0% ≤ substrate protein remaining % ≤ 80%)"
"O=C1CCN(N2Cc3cc(CN4CCN(c5c(Cl)cccc5Cl)CC4)ccc3C2=O)C(=O)N1 [GT-06774, 1-(5-((4-(2,6-dichlorophenyl)piperazin-1-yl)methyl)-1-oxoisoindolin-2-yl)dihydropyrimidine-2,4(1H,3H)-dione]",IKZF2 substrate protein remaining %,[1],"A (""A"" is defined as 0% ≤ substrate protein remaining % ≤ 80%)"
same,IKZF1 substrate protein remaining %,[2],"B (""B"" is defined as 80%< substrate protein remaining %≤ 100%)"
same,IKZF3 substrate protein remaining %,[3],"A (""A"" is defined as 0% ≤ substrate protein remaining % ≤ 80%)"
same,CK1α substrate protein remaining %,[4],"A (""A"" is defined as 0% ≤ substrate protein remaining % ≤ 80%)"
same,WEE1 substrate protein remaining %,[5],"B (""B"" is defined as 80%< substrate protein remaining %≤ 100%)"
same,GSPT1 substrate protein remaining %,[6],"A (""A"" is defined as 0% ≤ substrate protein remaining % ≤ 80%)"
"O=C1CCN(N2Cc3cc(CN4CCN(c5ccc(Cl)c(Cl)c5)CC4)ccc3C2=O)C(=O)N1 [GT-06775, 1-(5-((4-(3,4-dichlorophenyl)piperazin-1-yl)methyl)-1-oxoisoindolin-2-yl)dihydropyrimidine-2,4(1H,3H)-dione]",IKZF2 substrate protein remaining %,[1],"A (""A"" is defined as 0% ≤ substrate protein remaining % ≤ 80%)"
same,IKZF1 substrate protein remaining %,[2],"B (""B"" is defined as 80%< substrate protein remaining %≤ 100%)"
same,IKZF3 substrate protein remaining %,[3],"A (""A"" is defined as 0% ≤ substrate protein remaining % ≤ 80%)"
same,CK1α substrate protein remaining %,[4],"A (""A"" is defined as 0% ≤ substrate protein remaining % ≤ 80%)"
same,WEE1 substrate protein remaining %,[5],"B (""B"" is defined as 80%< substrate protein remaining %≤ 100%)"
same,GSPT1 substrate protein remaining %,[6],"A (""A"" is defined as 0% ≤ substrate protein remaining % ≤ 80%)"
"O=C1CCN(N2Cc3cc(CN4CCN(c5ccc(F)cc5F)CC4)ccc3C2=O)C(=O)N1 [GT-06778, 1-(5-((4-(2,4-difluorophenyl)piperazin-1-yl)methyl)-1-oxoisoindolin-2-yl)dihydropyrimidine-2,4(1H,3H)-dione]",IKZF2 substrate protein remaining %,[1],"B (""B"" is defined as 80%< substrate protein remaining %≤ 100%)"
same,IKZF1 substrate protein remaining %,[2],"B (""B"" is defined as 80%< substrate protein remaining %≤ 100%)"
same,IKZF3 substrate protein remaining %,[3],"B (""B"" is defined as 80%< substrate protein remaining %≤ 100%)"
same,CK1α substrate protein remaining %,[4],"A (""A"" is defined as 0% ≤ substrate protein remaining % ≤ 80%)"
same,WEE1 substrate protein remaining %,[5],"B (""B"" is defined as 80%< substrate protein remaining %≤ 100%)"
same,GSPT1 substrate protein remaining %,[6],"A (""A"" is defined as 0% ≤ substrate protein remaining % ≤ 80%)"
"O=C1CCN(N2Cc3cc(CN4CCN(c5cc(F)ccc5F)CC4)ccc3C2=O)C(=O)N1 [GT-06779, 1-(5-((4-(2,5-difluorophenyl)piperazin-1-yl)methyl)-1-oxoisoindolin-2-yl)dihydropyrimidine-2,4(1H,3H)-dione]",IKZF2 substrate protein remaining %,[1],"B (""B"" is defined as 80%< substrate protein remaining %≤ 100%)"
same,IKZF1 substrate protein remaining %,[2],"B (""B"" is defined as 80%< substrate protein remaining %≤ 100%)"
same,IKZF3 substrate protein remaining %,[3],"B (""B"" is defined as 80%< substrate protein remaining %≤ 100%)"
same,CK1α substrate protein remaining %,[4],"A (""A"" is defined as 0% ≤ substrate protein remaining % ≤ 80%)"
same,WEE1 substrate protein remaining %,[5],"B (""B"" is defined as 80%< substrate protein remaining %≤ 100%)"
same,GSPT1 substrate protein remaining %,[6],"B (""B"" is defined as 80%< substrate protein remaining %≤ 100%)"
"O=C1CCN(N2Cc3cc(CN4CCN(c5c(F)cccc5F)CC4)ccc3C2=O)C(=O)N1 [GT-06780, 1-(5-((4-(2,6-difluorophenyl)piperazin-1-yl)methyl)-1-oxoisoindolin-2-yl)dihydropyrimidine-2,4(1H,3H)-dione]",IKZF2 substrate protein remaining %,[1],"B (""B"" is defined as 80%< substrate protein remaining %≤ 100%)"
same,IKZF1 substrate protein remaining %,[2],"B (""B"" is defined as 80%< substrate protein remaining %≤ 100%)"
same,IKZF3 substrate protein remaining %,[3],"B (""B"" is defined as 80%< substrate protein remaining %≤ 100%)"
same,CK1α substrate protein remaining %,[4],"A (""A"" is defined as 0% ≤ substrate protein remaining % ≤ 80%)"
same,WEE1 substrate protein remaining %,[5],"B (""B"" is defined as 80%< substrate protein remaining %≤ 100%)"
same,GSPT1 substrate protein remaining %,[6],"B (""B"" is defined as 80%< substrate protein remaining %≤ 100%)"
"O=C1CCN(N2Cc3cc(CN4CCN(c5ccc(F)c(F)c5)CC4)ccc3C2=O)C(=O)N1 [GT-06781, 1-(5-((4-(3,4-difluorophenyl)piperazin-1-yl)methyl)-1-oxoisoindolin-2-yl)dihydropyrimidine-2,4(1H,3H)-dione]",IKZF2 substrate protein remaining %,[1],"B (""B"" is defined as 80%< substrate protein remaining %≤ 100%)"
same,IKZF1 substrate protein remaining %,[2],"B (""B"" is defined as 80%< substrate protein remaining %≤ 100%)"
same,IKZF3 substrate protein remaining %,[3],"B (""B"" is defined as 80%< substrate protein remaining %≤ 100%)"
same,CK1α substrate protein remaining %,[4],"A (""A"" is defined as 0% ≤ substrate protein remaining % ≤ 80%)"
same,WEE1 substrate protein remaining %,[5],"B (""B"" is defined as 80%< substrate protein remaining %≤ 100%)"
same,GSPT1 substrate protein remaining %,[6],"A (""A"" is defined as 0% ≤ substrate protein remaining % ≤ 80%)"
"O=C1CCN(N2Cc3cc(CN4CCN(c5cc(F)cc(F)c5)CC4)ccc3C2=O)C(=O)N1 [GT-06782, 1-(5-((4-(3,5-difluorophenyl)piperazin-1-yl)methyl)-1-oxoisoindolin-2-yl)dihydropyrimidine-2,4(1H,3H)-dione]",IKZF2 substrate protein remaining %,[1],"B (""B"" is defined as 80%< substrate protein remaining %≤ 100%)"
same,IKZF1 substrate protein remaining %,[2],"B (""B"" is defined as 80%< substrate protein remaining %≤ 100%)"
same,IKZF3 substrate protein remaining %,[3],"B (""B"" is defined as 80%< substrate protein remaining %≤ 100%)"
same,CK1α substrate protein remaining %,[4],"A (""A"" is defined as 0% ≤ substrate protein remaining % ≤ 80%)"
same,WEE1 substrate protein remaining %,[5],"B (""B"" is defined as 80%< substrate protein remaining %≤ 100%)"
same,GSPT1 substrate protein remaining %,[6],"A (""A"" is defined as 0% ≤ substrate protein remaining % ≤ 80%)"
